Test results reported in ChEMBL document CHEMBL1135055, “Amide derivatives of meclofenamic acid as selective cyclooxygenase-2 inhibitors” (Bioorg Med Chem Lett, 2002).

Key:
[1] = molecular target: T1, Prostaglandin G/H synthase 2 (Homo sapiens, UniProt P35354)
T1 sequence (P35354 whole entry): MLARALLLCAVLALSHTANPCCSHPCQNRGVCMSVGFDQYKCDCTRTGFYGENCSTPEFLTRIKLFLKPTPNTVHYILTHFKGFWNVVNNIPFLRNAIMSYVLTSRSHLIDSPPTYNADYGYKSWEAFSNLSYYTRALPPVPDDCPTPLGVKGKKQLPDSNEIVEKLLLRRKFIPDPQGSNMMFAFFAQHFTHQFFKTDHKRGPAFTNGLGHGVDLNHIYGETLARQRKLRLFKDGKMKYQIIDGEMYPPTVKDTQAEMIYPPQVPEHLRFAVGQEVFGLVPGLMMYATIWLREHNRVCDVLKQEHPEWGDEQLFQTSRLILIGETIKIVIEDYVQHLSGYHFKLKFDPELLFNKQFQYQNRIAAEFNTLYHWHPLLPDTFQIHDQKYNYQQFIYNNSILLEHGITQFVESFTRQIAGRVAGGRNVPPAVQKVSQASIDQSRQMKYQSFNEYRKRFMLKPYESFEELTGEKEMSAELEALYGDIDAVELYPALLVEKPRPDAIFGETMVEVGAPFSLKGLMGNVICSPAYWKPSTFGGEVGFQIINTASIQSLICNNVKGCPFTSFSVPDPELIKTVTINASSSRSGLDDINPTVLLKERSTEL
Description: Inhibition of the human Prostaglandin G/H synthase 2 was determined by thin-layer chromatography assay

[2] = molecular target: T2, Prostaglandin G/H synthase 1 (Ovis aries, UniProt P05979); assay: Inhibition of the ovine Prostaglandin G/H synthase 1 was determined by thin-layer chromatography assay
T2 sequence (P05979 whole entry): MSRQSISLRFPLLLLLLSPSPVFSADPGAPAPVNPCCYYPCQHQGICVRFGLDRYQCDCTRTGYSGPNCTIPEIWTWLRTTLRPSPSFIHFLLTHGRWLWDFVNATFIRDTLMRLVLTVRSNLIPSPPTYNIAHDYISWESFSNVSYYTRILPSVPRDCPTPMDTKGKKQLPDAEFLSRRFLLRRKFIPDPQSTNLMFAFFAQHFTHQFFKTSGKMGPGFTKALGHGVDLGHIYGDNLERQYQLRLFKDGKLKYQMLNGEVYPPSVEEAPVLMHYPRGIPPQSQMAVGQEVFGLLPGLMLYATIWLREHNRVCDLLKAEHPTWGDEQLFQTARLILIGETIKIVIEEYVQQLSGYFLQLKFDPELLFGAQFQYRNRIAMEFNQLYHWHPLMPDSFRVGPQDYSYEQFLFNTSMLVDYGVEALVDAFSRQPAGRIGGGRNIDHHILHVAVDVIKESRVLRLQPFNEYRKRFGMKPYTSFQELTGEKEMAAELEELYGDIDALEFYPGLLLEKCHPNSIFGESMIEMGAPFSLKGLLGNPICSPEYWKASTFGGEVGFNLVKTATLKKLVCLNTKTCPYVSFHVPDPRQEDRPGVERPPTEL

[3] = molecular target: T3, Prostaglandin G/H synthase 2 (Mus musculus, UniProt Q05769, R106A)
T3 sequence (Q05769 18-604 R106A limits assumed): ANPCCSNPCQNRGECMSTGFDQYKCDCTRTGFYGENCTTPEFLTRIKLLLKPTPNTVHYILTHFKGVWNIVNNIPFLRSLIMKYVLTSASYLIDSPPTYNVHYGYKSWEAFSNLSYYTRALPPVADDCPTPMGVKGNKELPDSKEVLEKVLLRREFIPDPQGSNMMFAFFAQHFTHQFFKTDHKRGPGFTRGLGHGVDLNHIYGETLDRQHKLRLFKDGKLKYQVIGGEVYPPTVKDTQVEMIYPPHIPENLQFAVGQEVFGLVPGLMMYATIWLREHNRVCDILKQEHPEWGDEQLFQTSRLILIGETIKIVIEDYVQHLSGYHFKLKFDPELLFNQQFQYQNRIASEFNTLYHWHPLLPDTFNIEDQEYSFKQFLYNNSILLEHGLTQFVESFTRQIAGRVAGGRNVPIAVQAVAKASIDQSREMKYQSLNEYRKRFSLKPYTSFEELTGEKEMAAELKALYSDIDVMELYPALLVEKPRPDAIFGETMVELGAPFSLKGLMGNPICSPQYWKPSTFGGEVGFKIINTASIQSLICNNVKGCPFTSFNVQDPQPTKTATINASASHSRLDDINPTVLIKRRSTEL
Description: Inhibition of the Arg120Ala murine COX-2 mutant enzyme

[4] = Inhibitory concentration against prostaglandin E2
[5] = molecular target: T3, Prostaglandin G/H synthase 2; assay: Inhibition of the murine Arg120Ala mutant type COX-2
[6] = molecular target: T4, Prostaglandin G/H synthase 2 (Mus musculus, UniProt Q05769); assay: Inhibition of the murine wild type Prostaglandin G/H synthase 2
T4 sequence (Q05769 whole entry): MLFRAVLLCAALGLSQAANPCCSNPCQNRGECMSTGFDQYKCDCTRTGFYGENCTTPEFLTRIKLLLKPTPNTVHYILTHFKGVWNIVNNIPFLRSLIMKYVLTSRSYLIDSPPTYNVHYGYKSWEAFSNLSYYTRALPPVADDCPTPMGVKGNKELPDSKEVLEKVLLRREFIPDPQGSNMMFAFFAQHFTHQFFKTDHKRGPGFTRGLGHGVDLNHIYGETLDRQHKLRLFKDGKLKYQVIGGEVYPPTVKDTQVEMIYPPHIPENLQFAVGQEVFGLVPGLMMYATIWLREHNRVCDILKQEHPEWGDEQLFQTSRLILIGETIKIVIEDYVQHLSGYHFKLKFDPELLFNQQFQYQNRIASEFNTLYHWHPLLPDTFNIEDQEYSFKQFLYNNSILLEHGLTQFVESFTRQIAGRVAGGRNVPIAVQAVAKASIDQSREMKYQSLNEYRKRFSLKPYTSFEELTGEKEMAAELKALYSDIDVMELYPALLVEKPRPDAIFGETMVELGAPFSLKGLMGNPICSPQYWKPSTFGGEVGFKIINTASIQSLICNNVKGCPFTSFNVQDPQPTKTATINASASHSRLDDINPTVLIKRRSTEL

Row | Compound | IC50 [1] [nM] | IC50 [2] [nM] | IC50 [3] [nM] | IC50 [4] [nM] | IC50 [5] [nM] | IC50 [6] [nM]
1 | Cc1ccc(Cl)c(Nc2ccccc2C(=O)NCC(=O)O)c1Cl | 300 | 400 |  |  |  | 
2 | Cc1ccc(Cl)c(Nc2ccccc2C(=O)NCCO)c1Cl | 1000 | 600 |  |  |  | 
3 | Cc1ccc(Cl)c(Nc2ccccc2C(=O)NOC(C)(C)C)c1Cl | 66000 | 8000 |  |  |  | 
4 | Cc1ccc(Cl)c(Nc2ccccc2C(=O)NOCc2ccc([N+](=O)[O-])cc2)c1Cl | 66000 | 200 |  |  |  | 
5 | COC(=O)[C@@H](C)NC(=O)c1ccccc1Nc1c(Cl)ccc(C)c1Cl | 6000 | 2700 |  |  |  | 
6 | Cc1ccc(Cl)c(Nc2ccccc2C(=O)NCCOc2ccccc2)c1Cl | 66000 | 150 | 550 | 1800 |  | 
7 | COC(=O)CNC(=O)c1ccccc1Nc1c(Cl)ccc(C)c1Cl | 1200 | 70 |  |  |  | 
8 | CCCCCCCCNC(=O)c1ccccc1Nc1c(Cl)ccc(C)c1Cl | 60 | 50 |  |  |  | 
9 | Cc1ccc(Cl)c(Nc2ccccc2C(=O)NCCc2ccccc2)c1Cl | 4000 | 4500 |  |  |  | 
10 | Cc1ccc(Cl)c(Nc2ccccc2C(=O)NCCCCl)c1Cl | 2400 | 60 |  |  |  | 
11 | CCOC(=O)CNC(=O)c1ccccc1Nc1c(Cl)ccc(C)c1Cl | 4000 | 200 |  |  |  | 
12 | CNC(=O)c1ccccc1Nc1c(Cl)ccc(C)c1Cl | > 2000 | > 2000 |  |  |  | 
13 | COCCNC(=O)c1ccccc1Nc1c(Cl)ccc(C)c1Cl | 3000 | 140 |  |  |  | 
14 | COC(=O)c1ccccc1Nc1c(Cl)ccc(C)c1Cl | 4000 | 17000 |  |  |  | 
15 | CC(=O)Nc1ccc(OC(=O)c2ccccc2Nc2c(Cl)ccc(C)c2Cl)cc1 | > 20000 | > 20000 |  |  |  | 
16 | COC(=O)[C@H](C)NC(=O)c1ccccc1Nc1c(Cl)ccc(C)c1Cl | 2600 | 800 |  |  |  | 
17 | COCCCNC(=O)c1ccccc1Nc1c(Cl)ccc(C)c1Cl | 11000 | 250 |  |  |  | 
18 | Cc1ccc(Cl)c(Nc2ccccc2C(=O)N[C@@H](C)C(=O)O)c1Cl | 33000 | 6000 |  |  |  | 
19 | Cc1ccc(Cl)c(Nc2ccccc2C(=O)NNCc2ccccc2)c1Cl | 6300 | 5000 |  |  |  | 
20 | Cc1ccc(Cl)c(Nc2ccccc2C(=O)NCCBr)c1Cl | 2000 | 70 |  |  |  | 
21 | Cc1ccc(Cl)c(Nc2ccccc2C(=O)NOCc2ccccc2)c1Cl | 66000 | 1000 |  |  |  | 
22 | Cc1ccc(Cl)c(Nc2ccccc2C(=O)N[C@H](C)C(=O)O)c1Cl | > 33000 | 8000 |  |  |  | 
23 | CONC(=O)c1ccccc1Nc1c(Cl)ccc(C)c1Cl | 55000 | 500 |  |  |  | 
24 | Cc1ccc(Cl)c(Nc2ccccc2C(=O)O)c1Cl [MECLOFENAMIC ACID] | 40 | 50 |  |  | 400 | 200
